From patent publication US9718804B2, “GSK-3 inhibitors” (BRISTOL-MYERS SQUIBB COMPANY, priority 2013, dated 2017)
Where two headings read alike, the source gives them in different places.

Columns and labels:
pTau = pTau assay (no method described); format: cell-based
GSK3β = GSK3β (Homo sapiens, UniProt P49841); experiment: GSK3β kinase assay (Caliper LabChip, fluoresceinated peptide substrate); format: biochemical
Experimental: (§1) The kinase assay was performed in V-bottom 384-well plates. […] The reaction was incubated at room temperature for 20 hours and terminated by adding 45 μl of 35 mM EDTA to each sample. The reaction mixture was analyzed on the Caliper LabChip3000 (Caliper, Hopkinton, Mass.) by electrophoretic separation of the unphosphorylated substrate and phosphorylated product. […] Compounds were dissolved at 10 mM in dimethylsulfoxide (DMSO) and evaluated at eleven concentrations. IC50 values were derived by non-linear regression analysis.

GSK3α = GSK3α (Homo sapiens, UniProt P49840); experiment: GSK3α kinase assay (Caliper LabChip, fluoresceinated peptide substrate); format: biochemical
Experimental: as §1

[1] = first value of the cell, 250 pM enzyme, 20 uM ATP, 20 hours at room temperature, read-out: GSK3β/α (nM): GSK3β IC50

GSK3α, sequence (P49840 whole entry, species assumed): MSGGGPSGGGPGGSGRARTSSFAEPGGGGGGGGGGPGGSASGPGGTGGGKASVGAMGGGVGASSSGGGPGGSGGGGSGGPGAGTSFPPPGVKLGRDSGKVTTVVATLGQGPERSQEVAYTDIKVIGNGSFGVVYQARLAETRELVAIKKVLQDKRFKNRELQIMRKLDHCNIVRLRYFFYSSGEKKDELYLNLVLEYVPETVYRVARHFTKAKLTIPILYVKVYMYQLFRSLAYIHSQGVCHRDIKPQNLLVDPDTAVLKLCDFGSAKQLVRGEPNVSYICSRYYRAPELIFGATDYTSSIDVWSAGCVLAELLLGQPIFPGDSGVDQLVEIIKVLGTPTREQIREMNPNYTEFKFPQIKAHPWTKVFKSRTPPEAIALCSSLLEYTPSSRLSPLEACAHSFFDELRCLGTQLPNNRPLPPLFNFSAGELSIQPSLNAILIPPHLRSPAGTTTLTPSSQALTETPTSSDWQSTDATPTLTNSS
GSK3β, sequence (P49841 whole entry, species assumed): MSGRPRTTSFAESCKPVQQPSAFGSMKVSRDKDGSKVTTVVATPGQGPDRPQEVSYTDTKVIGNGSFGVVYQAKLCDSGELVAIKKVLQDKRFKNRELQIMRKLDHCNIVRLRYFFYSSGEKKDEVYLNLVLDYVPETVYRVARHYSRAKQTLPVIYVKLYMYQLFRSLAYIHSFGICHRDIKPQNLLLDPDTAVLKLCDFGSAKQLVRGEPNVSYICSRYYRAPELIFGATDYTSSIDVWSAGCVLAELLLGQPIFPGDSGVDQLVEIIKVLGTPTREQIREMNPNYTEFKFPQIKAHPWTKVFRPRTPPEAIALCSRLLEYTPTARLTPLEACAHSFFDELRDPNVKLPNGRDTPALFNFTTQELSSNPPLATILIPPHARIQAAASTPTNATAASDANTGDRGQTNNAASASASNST

| SMILES | IC50 (pTau) [nM] | IC50 (GSK3β; [1]) [nM] | IC50 (GSK3α) [nM] | IC50 (GSK3β) [nM] |
| --- | --- | --- | --- | --- |
| COc1ccc(-c2ccncc2NC(=O)c2ccnc(Nc3ccc(C(F)(F)F)cn3)c2)c(F)c1 [Example 55, N-(4-(2-Fluoro-4-methoxy-phenyl)pyridin-3-yl)-2-((5-(trifluoromethyl)pyridin-2-yl)amino)isonicotinamide] | 86 | 3.2 | 0.89 | – |
| O=C(Nc1cnc(Cl)cc1C(=O)C1CC1)c1ccnc(Nc2ccc(C(F)(F)F)cn2)c1 [Example 92, N-(6-Chloro-4-(cyclopropanecarbonyl)pyridin-3-yl)-2-((5-(trifluoromethyl)pyridin-2-yl)amino)isonicotinamide] | 1400 | 8.8 | 4 | – |
| CC1(c2cc(Cl)ncc2NC(=O)c2ccnc(Nc3ccc(C(F)(F)F)cn3)c2)CCCO1 (stereo not shown) [Example 77, N-(6-Chloro-4-(2-methyltetrahydrofuran-2-yl)pyridin-3-yl)-2-((5-(trifluoromethyl)pyridin-2-yl)amino)isonicotinamide] | 31 | 0.63 | 0.35 | – |
| CCCS(=O)(=O)c1ccncc1NC(=O)c1ccnc(Nc2ccc(C(F)(F)F)cn2)c1 [Example 182, N-(4-(Propylsulfonyl)pyridin-3-yl)-2-((5-(trifluoromethyl)pyridin-2-yl)amino)isonicotinamide] | 15 | 5.2 | 2.1 | – |
| O=C(Nc1cncc(-c2ccccc2F)c1)c1ccnc(Nc2cccc(F)n2)c1 [Example 136, N-(5-(2-Fluorophenyl)pyridin-3-yl)-2-((6-fluoropyridin-2-yl)amino)isonicotinamide] | 1100 | 11 | 2.7 | – |
| O=C(Nc1cnccc1OCC(F)(F)F)c1ccnc(Nc2ccc(Cl)cn2)c1 [Example 31, 2-((5-Chloropyridin-2-yl)amino)-N-(4-(2,2,2-trifluoroethoxy)pyridin-3-yl)isonicotinamide] | 22 | 0.74 | 0.3 | – |
| CC(O)(c1cnncc1NC(=O)c1ccnc(Nc2ccc(C(F)(F)F)cn2)c1)C1CC1 (stereo not shown) [Example 203, N-(5-(1-Cyclopropyl-1-hydroxyethyl)pyridazin-4-yl)-2-((5-(trifluoromethyl)pyridin-2-yl)amino)isonicotinamide] | 10000 | 1.2 | 0.94 | – |
| CC(C)[S+]([O-])c1ccncc1NC(=O)c1ccnc(Nc2ccc(C(F)(F)F)cn2)c1 (stereo not shown) [Example 179, N-(4-(isopropylsulfinyl)pyridin-3-yl)-2-((5-(trifluoromethyl)pyridin-2-yl)amino)isonicotinamide] | – | 4.3 | 1.2 | – |
| Cc1cccc(Nc2cc(C(=O)Nc3cncc(-c4ccccc4F)c3)ccn2)n1 [Example 137, N-(5-(2-Fluorophenyl)pyridin-3-yl)-2-((6-methylpyridin-2-yl)amino)isonicotinamide] | 2700 | 7.1 | 5.6 | – |
| O=C(Nc1cnc(Cl)cc1C1(C2CC2)OCCO1)c1ccnc(Nc2ccc(C(F)(F)F)cn2)c1 [Example 87, N-(6-Chloro-4-(2-cyclopropyl-1,3-dioxolan-2-yl)pyridin-3-yl)-2-((5-(trifluoromethyl)pyridin-2-yl)amino)isonicotinamide] | 6.6 | 0.04 | 0.17 | – |
| NC(=O)c1ccc(Nc2cc(C(=O)Nc3cncc(-c4ccccc4F)c3)ccn2)nc1 [Example 160, 6-((4-((5-(2-Fluorophenyl)pyridin-3-yl)carbamoyl)pyridin-2-yl)amino)nicotinamide] | – | 16 | 7.6 | – |
| O=C(Nc1cnccc1-c1ccccc1)c1ccnc(Nc2ccc3ccccc3n2)c1 [Example 116, N-(4-Phenylpyridin-3-yl)-2-(quinolin-2-ylamino)isonicotinamide] | 610 | 7.8 | 3.9 | – |
| O=C(Nc1cncnc1)c1ccnc(Nc2ccc(C(F)(F)F)cn2)c1 [Example 191, N-(Pyrimidin-5-yl)-2-((5-(trifluoromethyl)pyridin-2-yl)amino)isonicotinamide] | 1600 | 17 | 9 | – |
| O=C(Nc1cnc(Cl)cc1C(O)(C1CC1)C1CC1)c1ccnc(Nc2ccc(C(F)(F)F)cn2)c1 [Example 99, N-(6-Chloro-4-(dicyclopropyl(hydroxy)methyl)pyridin-3-yl)-2-((5-(trifluoromethyl)pyridin-2-yl)amino)isonicotinamide] | 430 | 6.4 | 4.6 | – |
| CCC1(c2cc(Cl)ncc2NC(=O)c2ccnc(Nc3ccc(F)cn3)c2)OCCO1 [Example 113, N-(6-Chloro-4-(2-ethyl-1,3-dioxolan-2-yl)pyridin-3-yl)-2-((5-fluoropyridin-2-yl)amino)isonicotinamide] | 14 | 1.7 | 0.04 | – |
| O=C(Nc1cncc(OCC(F)(F)F)c1)c1ccnc(Nc2cccc(C(F)(F)F)n2)c1 [Example 123, N-(5-(2,2,2-Trifluoroethoxy)pyridin-3-yl)-2-((6-(trifluoromethyl)pyridin-2-yl)amino)isonicotinamide] | 520 | – | 3.2 | 7.4 |

| SMILES | IC50 (pTau) [nM] | IC50 (GSK3β; [1]) [nM] | IC50 (GSK3α) [nM] | IC50 (GSK3β) [nM] |
| --- | --- | --- | --- | --- |
| CC(O)(c1cc(Cl)ncc1NC(=O)c1ccnc(Nc2ccc(C(F)(F)F)cn2)c1)C1CC1 (stereo not shown) [Example 98, N-(6-Chloro-4-(1-cyclopropyl-1-hydroxyethyl)pyridin-3-yl)-2-((5-(trifluoromethyl)pyridin-2-yl)amino)isonicotinamide] | 230 | 3.7 | 4 | – |
| N#CC1(c2ccc(Nc3cc(C(=O)Nc4cnccc4-c4ccccc4)ccn3)nc2)CC1 [Example 62, 2-((5-(1-Cyanocyclopropyl)pyridin-2-yl)amino)-N-(4-phenylpyridin-3-yl)isonicotinamide] | 37 | 0.62 | 0.29 | – |
| O=C(Nc1cnccc1-c1ccccn1)c1ccnc(Nc2ccc(C(F)(F)F)cn2)c1 [Example 43, N-([2,4′-Bipyridin]-3′-yl)-2-((5-(trifluoromethyl)pyridin-2-yl)amino)isonicotinamide] | – | 0.77 | 0.59 | – |
| N#Cc1cnn(-c2cncc(NC(=O)c3ccnc(Nc4ccc(C(F)(F)F)cn4)c3)c2)c1 [Example 118, N-(5-(4-Cyano-1H-pyrazol-1-yl)pyridin-3-yl)-2-((5-(trifluoromethyl)pyridin-2-yl)amino)isonicotinamide] | 360 | 7.3 | – | – |
| O=C(Nc1cnc(F)cc1OCC(F)(F)F)c1ccnc(Nc2ccc(C(F)(F)F)cn2)c1 [Example 69, N-(6-Fluoro-4-(2,2,2-trifluoroethoxy)pyridin-3-yl)-2-((5-(trifluoromethyl)pyridin-2-yl)amino)isonicotinamide] | 165 | 2.6 | – | – |
| Cc1cc(C2(C3CC3)OCCO2)c(NC(=O)c2ccnc(Nc3ccc(C(F)(F)F)cn3)c2)cn1 [Example 105, N-(4-(2-Cyclopropyl-1,3-dioxolan-2-yl)-6-methylpyridin-3-yl)-2-((5-(trifluoromethyl)pyridin-2-yl)amino)isonicotinamide] | 2 | – | – | – |
| CCc1nc(Nc2cc(C(=O)Nc3cncc(-c4ccccc4F)c3)ccn2)ccc1C#N [Example 148, 2-((5-Cyano-6-ethylpyridin-2-yl)amino)-N-(5-(2-fluorophenyl)pyridin-3-yl)isonicotinamide] | 360 | 4.5 | – | – |
| N#Cc1ccc(-c2cncc(NC(=O)c3ccnc(Nc4cccc(C#N)n4)c3)c2)cc1 [Example 162, N-(5-(4-Cyanophenyl)pyridin-3-yl)-2-((6-cyanopyridin-2-yl)amino)isonicotinamide] | – | – | 2.4 | 3.5 |
| C=CCOc1ccc(-c2cnncc2NC(=O)c2ccnc(Nc3ccc(C(F)(F)F)cn3)c2)cc1 [Example 199, N-(5-(4-(Allyloxy)phenyl)pyridazin-4-yl)-2-((5-(trifluoromethyl)pyridin-2-yl)amino)isonicotinamide] | 470 | 8.7 | – | – |
| COC(=O)/C=C/c1ccc(Nc2cc(C(=O)Nc3cncc(-c4ccccc4F)c3)ccn2)nc1 [Example 161] | – | 23 | 8 | – |
| CS(=O)(=O)c1ccncc1NC(=O)c1ccnc(Nc2ccc(C(F)(F)F)cn2)c1 [Example 181, N-(4-(Methylsulfonyl)pyridin-3-yl)-2-((5-(trifluoromethyl)pyridin-2-yl)amino)isonicotinamide] | – | 1.2 | 0.77 | – |
| O=C(Nc1cnccc1C1CCCCO1)c1ccnc(Nc2ccc(C(F)(F)F)cn2)c1 (stereo not shown) [Example 41, N-(4-(Tetrahydro-2H-pyran-2-yl)pyridin-3-yl)-2-((5-(trifluoromethyl)pyridin-2-yl)amino)isonicotinamide] | 120 | 13 | – | – |
| COC(=O)c1cccc(Nc2cc(C(=O)Nc3cncc(-c4ccccc4F)c3)ccn2)n1 [Example 149, Methyl 6-((4-((5-(2-fluorophenyl)pyridin-3-yl)carbamoyl)pyridin-2-yl)amino)picolinate] | 1700 | 2.7 | – | – |
| O=C(Nc1cnncc1C(=O)C1CC1)c1ccnc(Nc2ccc(C(F)(F)F)cn2)c1 [Example 202, N-(5-(Cyclopropanecarbonyl)pyridazin-4-yl)-2-((5-(trifluoromethyl)pyridin-2-yl)amino)isonicotinamide] | – | 2.9 | 1.1 | – |
| O=C(Nc1cnccc1OCC(F)(F)F)c1cc(Nc2ccc(C(F)(F)F)cn2)ncc1F [Example 168, 5-Fluoro-N-(4-(2,2,2-trifluoroethoxy)pyridin-3-yl)-2-((5-(trifluoromethyl)pyridin-2-yl)amino)isonicotinamide] | – | 1.5 | 0.73 | – |
| O=C(Nc1cncc(-c2ccccc2F)c1)c1ccnc(Nc2cccc(Cl)n2)c1 [Example 150] | 1100 | 3.5 | – | – |
